Here are results for 31 molecules from PubChem BioAssay (NCI).

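Five compound concentrations were applied to cells in 96-well plates for 48 hours; endpoints were derived by simple linear interpolation of the resulting dose-response curve. GI50 = concentration required for 50% inhibition of growth. Definition used: TGI = concentration required for complete inhibition of growth.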

Common to all, as to experiment: DTP human tumour cell line panel, 48 h
Experiment [1] relates to HCT-116 colon.
Experiment [2] has as its system SK-MEL-2 melanoma.
Experiment [3] deals with SN12C renal.
Experiment [4] deals with U251 CNS.
Experiment [5] has as its system T-47D breast.
For experiment [6], the system named is OVCAR-4 ovarian.
Experiment [7] deals with BT-549 breast.
Experiment [8] has as its system UACC-257 melanoma.
Experiment [9] deals with SF-539 CNS.
The subject of experiment [10] is HOP-92 NSCLC.

On to `CC(C)c1cc(C(C)C)c(S(=O)(=O)N/N=C2\CC3CCC2(C)C3(C)C)c(C(C)C)c1` (centres undefined), for which the TGI in experiment [1] is more than 100 µM; in [2], more than 100 µM; in experiment [3], 38.2 µM; in [4], more than 100 µM; in experiment [5], 68 µM; in experiment [6], more than 100 µM. The TGI in [7] was more than 100 µM; in experiment [8] it was 26.2 µM.

For `N#CC(NNC(=O)c1ccccc1O)c1ccccc1O` (centres undefined), the total growth inhibition concentration (TGI) in [1] was more than 100 µM; in experiment [2] it was more than 100 µM; in experiment [3], more than 100 µM; in experiment [9], 40.9 µM; in experiment [10] it was more than 100 µM; in experiment [4], more than 100 µM. The total growth inhibition concentration (TGI) is more than 100 µM in [6] and 83 µM in [8].

As for `COc1cccc(O)c1-c1cc(=O)c2c(O)c(OC)c(OC)c(OC)c2o1`, the TGI in experiment [1] was more than 100 µM; in experiment [2], 52.4 µM; in experiment [3], 93.4 µM; in [9] it was more than 100 µM; in experiment [10] it was 82.8 µM; in experiment [4] it was more than 100 µM. The total growth inhibition concentration (TGI) in experiment [6] is more than 100 µM; in [7], 73.6 µM; in experiment [8], 80.5 µM.

`O[C@@H]1CCCCN1Cc1cc2cc3c(cc2c2cc(OCc4ccccc4)ccc12)OCO3`: the GI50 is 1.04 µM in experiment [1]; 1.7 µM in experiment [2]; 1.42 µM in experiment [3]; 1.55 µM in experiment [9]; 1.35 µM in [10]; 1.52 µM in experiment [4]. Also, the GI50 in [6] was 1.45 µM; in [7], 1.73 µM; in [8] it was 1.86 µM. The TGI in experiment [1] was 2.21 µM; in [2], 3.16 µM; in [3], 2.77 µM; in experiment [9] it was 2.96 µM; in [10] it was 2.93 µM; in experiment [4] it was 2.95 µM. For the same molecule, the TGI amounted to 2.9 µM in experiment [6], 3.31 µM in experiment [7] and 3.66 µM in experiment [8].

With `Cc1nnc(NS(=O)(=O)c2ccc(N=Nc3c(O)c(C(=O)O)cc4ccccc34)cc2)s1`, the TGI in experiment [1], in experiment [2], in experiment [3], in experiment [9], in experiment [10] and in [4] was more than 100 µM in each case. Further, the TGI in experiment [5], in [6] and in experiment [8] was more than 100 µM each time.

Take `COC(=O)c1c(C(=O)OC)c2ccccn2c1-c1cc(C)cc2c1C(=O)C=CC2=O`: the TGI in experiment [1] was 15.7 µM; in experiment [2], 17.2 µM; in experiment [3], 17.6 µM; in experiment [9] it was 15.7 µM; in experiment [5] it was 7.83 µM; in [6] it was 18.8 µM. The TGI in experiment [8] came to 13.6 µM.

Consider `C[C@@H](NC(=O)Nc1cccc(C(=O)Nc2cc(C(C)(C)C)ccc2C(=O)O)n1)c1ccccc1`, for which the TGI in experiment [1] was 44.1 µM; in experiment [2] it was 39 µM; in experiment [3] it was more than 100 µM; in experiment [4], 37.8 µM; in [5], more than 100 µM; in experiment [6], more than 100 µM. The TGI in experiment [7] was more than 100 µM.

With `COCc1nc(C#N)c(N)o1`, the TGI in experiment [1], in experiment [3], in experiment [9], in experiment [10], in experiment [5] and in experiment [6] was more than 10 µM throughout. Besides, the TGI in [7] and in experiment [8] was more than 10 µM in each case.

As for `O=C(NNC(=O)c1cc2ccccc2[nH]1)c1cc2ccccc2[nH]1`, the TGI in experiment [1], in experiment [2], in experiment [3], in experiment [9], in experiment [4] and in experiment [5] was more than 100 µM throughout. In addition, the TGI in experiment [6], in experiment [7] and in experiment [8] was more than 100 µM each time.

`COc1nc2c(c(=O)[nH]1)N=C(c1ccc([N+](=O)[O-])cc1)CC(c1ccccc1)N2` (centres undefined): the TGI in experiment [1], in [2], in [3], in experiment [9], in experiment [10] and in experiment [4] was more than 100 µM in each case. The TGI in experiment [6], in [7] and in [8] was more than 100 µM in each case.

With `COc1cc(OC)cc(Oc2nc3ccc(C(F)(F)F)cc3nc2-c2ccccc2)c1`, the total growth inhibition concentration (TGI) in [1], in experiment [9], in [10], in [4], in experiment [5] and in experiment [6] was more than 100 µM throughout. Also, the TGI in experiment [7] and in [8] was more than 100 µM each time.

As for `O=[N+]([O-])c1ccc(-c2ccc([C@H]3CC(c4cc(F)c(Cl)cc4Cl)=NN3)o2)cc1`, the concentration for total growth inhibition (TGI) is more than 100 µM in [1]; more than 100 µM in experiment [3]; 30.1 µM in experiment [9]; more than 100 µM in experiment [10]; 61.8 µM in experiment [5]; more than 100 µM in experiment [6]. Also, the results for the TGI in experiment [7] and in experiment [8] were 90.9 µM and more than 100 µM, respectively.

Regarding `CSc1cnc2ccccc2c1Sc1cn(C)c2ccccc2c1=O`, the TGI in experiment [1] is more than 100 µM; in experiment [2], more than 100 µM; in [3], more than 100 µM; in [9], more than 100 µM; in experiment [10], 67 µM; in [4], 38.6 µM. Moreover, the total growth inhibition concentration (TGI) in experiment [6] and in experiment [8] was more than 100 µM each time.

Regarding `Nc1cc2c(C3OC(CO)C(O)C3O)[nH]nc2c(=S)[nH]1` (centres undefined), the total growth inhibition concentration (TGI) in experiment [1], in experiment [2], in experiment [3], in experiment [9], in experiment [10] and in experiment [4] was more than 100 µM each time. Besides, the TGI in experiment [6] and in experiment [8] was more than 100 µM in each case.

For `CCc1c(N=[N+]=[N-])c2ccccc2oc1=O`, the TGI in [1], in [3], in experiment [9], in [10], in experiment [4] and in experiment [5] was more than 100 µM throughout. For the same molecule, the TGI in [6], in experiment [7] and in experiment [8] was more than 100 µM throughout.

Turning to `CS(=O)(=O)Sc1ccc(Cl)cc1`, the TGI in experiment [1] is 18.6 µM; in experiment [2] it was 25.6 µM; in experiment [3] it was 16 µM; in [9], 10.9 µM; in [10], 20 µM; in experiment [4] it was 11.5 µM. The TGI was determined as 29.7 µM in experiment [6] and 20.6 µM in [8].

As to `O=C(c1ccccc1)N1N=C(C(F)(F)F)CC1(O)C(F)(F)F` (centres undefined), the TGI in experiment [1], in experiment [2], in experiment [3], in experiment [9], in experiment [4] and in experiment [5] was more than 100 µM each time. The TGI in experiment [6], in experiment [7] and in experiment [8] was more than 100 µM in each case.

As to `C[N+](C)(C)CC(=O)N/N=C\c1c(O)ccc2ccccc12`, the TGI in experiment [1] is more than 100 µM; in experiment [2], more than 100 µM; in [3], more than 100 µM; in experiment [9] it was more than 100 µM; in experiment [10], 59.3 µM; in [4], more than 100 µM. Besides, the TGI in experiment [5], in [6] and in experiment [8] was more than 100 µM in each case.

On to `NCCCc1nonc1C(=O)O`, for which the concentration for total growth inhibition (TGI) in experiment [1], in experiment [2], in experiment [3], in [9], in experiment [10] and in [4] was more than 100 µM in each case. For the same molecule, the TGI in experiment [5], in experiment [6] and in experiment [8] was more than 100 µM in each case.

Turning to `COC(=O)C(Cc1ccc2c(c1)OCO2)(NC(=O)c1ccccc1)P(=O)(OC)OC` (centres undefined), the concentration for total growth inhibition (TGI) in [1], in experiment [2], in [3], in [9], in experiment [10] and in experiment [4] was more than 100 µM throughout. The TGI in experiment [6] and in experiment [8] was more than 100 µM in each case.

Take `c1ccc2sc(C3(N4CCCCCC4)CCCCC3)cc2c1`: the TGI in [1] is 52.1 µM; in experiment [3] it was 43.7 µM; in experiment [9], 46.1 µM; in experiment [10] it was 80 µM; in [4], 35 µM; in experiment [6], more than 100 µM. For the same molecule, the TGI in experiment [7] was 61.2 µM; in experiment [8], 50 µM.

In the case of `C/C(=C\COP(=O)(O)CP(=O)(O)O)CC/C=C(\C)CNc1ccccc1`, the TGI in experiment [1], in [2], in [3], in experiment [9], in experiment [4] and in experiment [5] was more than 100 µM in each case. Besides, the TGI in [7] and in experiment [8] was more than 100 µM in each case.

Take `COc1ccc(C2OC2C(=O)C23CC4CC(CC(C4)C2)C3)cc1` (centres undefined): the TGI in experiment [1], in experiment [3], in experiment [9], in [10], in experiment [4] and in [5] was more than 100 µM in each case. The TGI in [6] and in [8] was more than 100 µM each time.

With `C(#C[C@@]12CCC[C@@H]1NCO2)c1ccc2c(c1)OCO2`, the TGI in experiment [2], in [9], in [10], in [4], in [5] and in experiment [6] was more than 100 µM in each case. This molecule also yielded a TGI in experiment [8] of more than 100 µM.

Turning to `CCCCc1c2c([n+]([O-])c3c1CCCC3)CCCC2`, the TGI in [1], in experiment [3], in experiment [9], in [4] and in experiment [8] was more than 100 µM each time.

Consider `CC1=C(C(N)=O)C(c2ccncc2)C(C#N)C(=O)N1` (centres undefined), for which the TGI in [1], in [2], in [9], in [10], in [4] and in experiment [5] was more than 100 µM in each case. Further, the TGI in experiment [6] and in experiment [8] was more than 100 µM throughout.

As for `COC(=O)[C@@H](N1C(=O)c2ccccc2C1=O)C1(C)CC(Cl)=NO1` (some centres undefined), the total growth inhibition concentration (TGI) in experiment [1] is more than 100 µM; in experiment [2], more than 100 µM; in experiment [3] it was more than 100 µM; in [4] it was 77.2 µM; in [5], more than 100 µM; in [6], more than 100 µM. The TGI in experiment [7] and in [8] was more than 100 µM each time.

For the molecule `Cc1cccc2c(=O)c3cccc(CC(=O)O)c3oc12`, the TGI in experiment [1], in experiment [2], in experiment [3], in experiment [9], in experiment [10] and in [4] was more than 100 µM in each case. The TGI in experiment [5], in experiment [6] and in [8] was more than 100 µM each time.

`CCOC(=O)/C(C#N)=c1/s/c(=C(\O)N/N=C/c2ccc(OC)cc2)c(=N)n1-c1ccccc1`: the TGI in experiment [1], in experiment [9], in [10], in experiment [4] and in experiment [8] was more than 100 µM throughout.

For `CC12CCC(C(=Nc3ccc([N+](=O)[O-])cc3)C1=O)C2(C)C` (centres undefined), the TGI in experiment [1] is more than 100 µM; in experiment [2], 49.2 µM; in [9] it was 42.2 µM; in experiment [4], 97.6 µM; in [5], 69.5 µM; in experiment [6] it was 69.8 µM. Further, the TGI in experiment [7] and in experiment [8] was more than 100 µM in each case.

Turning to `CCO/C=N\C1=C(C#N)SC2=N/C(=C\c3ccco3)C(=O)N21`, the TGI in experiment [1], in experiment [2], in experiment [3], in [9], in experiment [10] and in [4] was more than 100 µM each time. For the same molecule, the TGI in experiment [5], in [6] and in [8] was more than 100 µM in each case.

For orientation: TGI means the concentration giving total growth inhibition. A high value points to less potent growth arrest. The term GI50 denotes the concentration that inhibits growth by half.
